Laboratory results: US20260055061A1, “HALOPHTHALIMIDE COMPOUNDS AND METHODS OF USE AGAINST TBI, INFLAMMATORY DISORDER, AUTOIMMUNE DISORDER, NEURODEGENERATIVE DISEASE OR VIRAL INFECTION” (The United States of America, as represented by the …, priority 2022, published 2026)
Entries after “also recorded” stand apart in the source; their conditions may differ.

Key:
[1] = test system: LPS-induced nitrite in RAW 264.7 cells; test: LPS-induced nitrite production in RAW 264.7 cells (Griess reagent / fluorometric kit); format: cell-based, mouse; conditions: for nitrite levels / nitrite level, % of vehicle control / nitrite inhibitory activity (comparison in words): 1 μM; for nitrite levels / nitrite level, % of vehicle control: LPS-challenged RAW 264.7 cells; for nitrite level, % of vehicle control: percentage of vehicle control value (control = 100%), mean ± S.E.M., n = 3; for nitrite inhibitory activity (comparison in words): tetrafluoro vs corresponding difluoro or stereoisomer; for LPS-induced nitrite in cell culture media (in words): 100-1000 nM; for concentration from which nitrite levels were significantly reduced: 100-1000 nM tested, vs LPS+Vehicle
Outline: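 Nitrite in culture media of LPS-challenged RAW 264.7 cells measured as a stable surrogate for NO, using Griess reagent (sulfanilamide, then N-1-naphthylethylenediamine, 10 min each in the dark). Absorbance at 550 nm, with levels read against a nitrite standard curve ([…]) made in matching medium.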

[2] = test system: TNF-α; test: LPS model of inflammation in rats: TNF-α in plasma and brain; format: in vivo, rat; conditions: for TNF-α plasma levels (in words): both doses (TFBP 16.25/32.5, TFNBP 14.33/28.66 mg/kg i.p.), 4 hr post LPS
Experimental: LPS model of inflammation in rats: Male Fischer 344 rats (Charles River Laboratories, Wilmington, MA, USA) (approx. 150 g weight) were randomly assigned across groups, and thereafter administered either vehicle (Veh), or TFBP or TFNBP. Two doses of TFBPs were evaluated: (TFBP: 16.25 mg/kg or 32.5 mg/kg, and for TFNBP: 14.33 mg/kg or 28.66 mg/kg), i.p. These compounds were suspended in 1% carboxymethyl cellulose (CMC) in saline (0.9%), and administered 60 min prior to either administration of LPS (1 mg/kg, Sigma, St Louis, MO, E. coli O55:B5 in saline (0.9%), 0.1 ml/kg i.p.) or of Vehicle (CMC in saline (0.9%) 0.1 ml/kg, i.p.). […] At 4 hr following LPS or Veh, animals were euthanized, and plasma and brain (hippocampus) tissue samples were collected and stored at −80° C. Brain samples were later sonicated in a Tris-based lysis buffer (Mesoscale Discovery, Gaithersburg, MD, USA) with protease/phosphatase inhibitors (Halt™ Protease and Phosphatase Inhibitor Cocktail, ThermoFisher Scientific, Asheville, NC, USA, diluted to 3×). Next, brain samples were centrifuged (10,000 g, 10 min, 4° C.), and protein concentrations were determined by Bicinchoninic acid assay (BCA, ThermoFisher Scientific, Asheville, NC, USA). An ELISA for TNF-α, IL-6, IL-1B, IL-10 and IL-13 was later performed following the manufacturer's protocol (Mesoscale Discovery).
Four hours after LPS injection, animals were euthanized, and blood and brain tissue were collected and placed on wet ice. Plasma was quickly separated from blood by centrifuge at 10,000 g. 5 min, 4° C., and brain regions of cortex, hippocampus and the rest of brain were dissected into separate vials on wet ice, then stored at −80° C. Brain tissues were then sonicated in a TRIS based lysis buffer (Mesoscale Discovery) with 3× protease/phosphatase inhibitors (Halt™ Protease and Phosphatase Inhibitor Cocktail, Thermo Fisher Scientific), were then centrifuged at 10,000 g, 10 min, 4° C., and protein concentrations were measured by Bicinchoninic acid assay (BCA, Thermo Fisher Scientific). Rat plasma, cerebral cortical and hippocampal samples were then analyzed by multi-proinflammatory cytokines ELISA (V-PLEX Proinflammatory Panel 2 Rat Kit, Mesoscale Discovery), following the manufacturer's protocol. The processes and dosages of the experiment of drug treatment effects on LPS rat model was made on the basis of our previous studies.

[3] = test system: TNF-α; test: LPS-induced TNF-α production in RAW 264.7 cells (ELISA); format: cell-based, mouse; conditions: for TNF-α level / TNF-α % Δ: 1 μM, LPS-challenged RAW 264.7 cells; for TNF-α % Δ: percentage of vehicle control value (control = 100%), mean ± S.E.M., n = 3; for LPS-induced TNF-α in cell culture media (in words): 100-1000 nM; for concentration from which TNF-α was significantly reduced: 100-1000 nM tested, vs LPS+Vehicle
Outline: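 Sandwich ELISA of TNF-α secreted into the media of RAW 264.7 cultures, with a biotinylated detection antibody, avidin-HRP and TMB substrate. Absorbance read at 450 nm with 570 nm background subtraction. Levels interpolated from a TNF-α protein standard curve.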

[4] = test system: IL-5; test: LPS model of inflammation in rats: IL-5 in plasma and cortex; format: in vivo, rat; conditions: both doses; LPS-challenged rats
[5] = high dose (TFBP 32.5, TFNBP 28.66 mg/kg i.p.)
[6] = low dose (TFBP 16.25, TFNBP 14.33 mg/kg i.p.)

SMILES | nitrite levels [1] | nitrite level, % of vehicle control [1] [%] | nitrite inhibitory activity (comparison in words) [1] | LPS-induced nitrite in cell culture media (in words) [1] | concentration from which nitrite levels were significantly reduced [1] [nM] | TNF-α plasma levels (in words) [2] | Cerebral cortex TNF-α, change vs. LPS group [2, 5] [%] | TNF-α plasma levels, decline vs. LPS alone group ([2]; higher dose (TFBP 32.5 mg/kg i.p.), 4 hr post LPS 1 mg/kg) [%] | Cerebral cortex TNF-α, change vs. LPS group [2, 6] | TNF-α level [3] | TNF-α % Δ [3] [%] | LPS-induced TNF-α in cell culture media (in words) [3] | concentration from which TNF-α was significantly reduced [3] [nM] | IL-5 expression in plasma (in words) [4] | Nitrite, % Change versus Control (± s.e.m.) ([1]; 10 uM, LPS-activated RAW 264.7 cells) [%] | drop in LPS-induced nitrite production ([1]; 10 μM, stimulated RAW cells) [%] | LPS-induced elevation in nitrite levels (in words) ([1]; 0.6-60 μM, LPS 60 ng/mL, 24 h) | nitrite levels (in words) ([1]; six-compound pomalidomide grouping, RAW cell assay, FIGS. 12-13) | TNF-α in plasma and brain ([2]; 29.57 mg/kg i.p., LPS rat model) | LPS-induced elevation in TNF-α levels (in words) ([3]; 0.6-60 μM, LPS 60 ng/mL, 24 h)
CC1(C)[C@@H]2CC[C@@]1(C)[C@@H](N1C(=O)c3c(F)c(F)c(F)c(F)c3C1=O)C2 [Compound 14, 4,5,6,7-Tetrafluoro-2-((1R,2S,4R)-1,7,7-trimethylbicyclo[2.2.1]heptan-2-yl) isoindoline-1,3-dione] | 25-36% | 26 ± 3 | more potent nitrite inhibitory activity | significantly decreased | ≥ 100 | reduced this increase | −58.3 | −76 | −41.7% | 55-74% | 55 ± 1 | significantly decreased | ≥ 600 | reduced IL-5 expression in plasma |  |  |  |  |  | 
O=C1c2c(F)c(F)c(F)c(F)c2C(=O)N1C1CC2CCC1C2 (stereo not drawn) [Compound 16, 2-Endo-(bicyclo[2.2.1]heptan-2-yl)-4,5,6,7-tetrafluoroisoindoline-1,3-dione] | 25-36% | 36 ± 4 | more potent nitrite inhibitory activity | significantly decreased; also recorded: effective in decreasing levels of nitrite and TNF-α | ≥ 300 | reduced this increase | −41.7 |  | only effectively did so at the higher tested dose | 55-74% | 74 ± 3 | significantly decreased; also recorded: effective in decreasing levels of nitrite and TNF-α | ≥ 300 | reduced IL-5 expression in plasma |  |  |  |  |  | 
Nc1ccc(F)c2c1C(=S)N(C1CCC(=S)NC1=O)C2=O (stereo not drawn) [Compound 30, 4-amino-7-fluoro-2-(2-oxo-6-thioxopiperidin-3-yl)-3-thioxoisoindolin-1-one] |  |  |  |  |  |  |  |  |  |  |  |  |  |  | 35.3 ± 3.0 | 65 | significantly lowered | superior | significantly reduce | significantly lowered
